Measured values: patent US20250288558A1, “THERAPEUTIC FOR SPINAL CORD INJURY TO INDUCE HYPOTHERMIA” (The Trustees of Indiana University, priority 2024, published 2025)
Structures can show the parent of a compound that is named as a salt.

Key:
[1] = system: SMI31-positive axons in white matter; details: FIG. 8B
Protocol: (§1) We further counted the number of NeuN-positive neurons in each section. […] Therefore, SMI31, an axon maker immunostaining was performed to evaluate the axons in spared white matter.
(§2) Immunofluorescent Staining: Immunofluorescent staining was carried out according to our previous reports. In brief, sections on the slides were rinsed in PBS 3 times (5 minutes each) and incubated in blocking buffer (0.1% Triton X-100, 1% bovine serum albumin, and 5% normal serum in PBS) for 1 hour at room temperature. Then, primary antibodies were added to blocking buffer and incubated with sections overnight at 4° C. After 3 washes with PBS (5 minutes each), sections were incubated with the secondary antibody for 1 hour at room temperature and then treated with 4′,6-Diamidino-2-phenylindole (DAPI) for 2 minutes. Finally, sections were washed 3 times with PBS (5 minutes each), dried, and mounted using Fluoromount G (Southern Biotech, Birmingham, AL, USA). Primary antibodies and their final concentrations were as follows: NeuN antibody (1:500, chicken, Abcam, ab134014), SMI31 antibody (1:1000, mouse, Millipore, NE1022), and GFAP antibody (1:1000, mouse, Sigma, G3893).

NeuN-positive neurons = details: after SCI, FIG. 8A
Protocol: as §1, §2

[2] = system: mice with contusive T9 moderate SCI (IH); details: 6 wk, SCI+Dex, n=10
Protocol: Grid-walking: The grid-walking test assesses the ability of a mouse to place its paws on the rungs of a grid accurately during spontaneous exploration. An elevated metal rectangle grid (12×36 inch2 with each grid cell 0.5×0.5 inch2) and 16 inches above a table top was used for the hindlimb drop error test. Each mouse was placed in the center of the grid for 3 min. A one-foot drop error was counted when the hindlimb paw was entirely dropping through the grid with all toes and heel below the grid surface. The total number of foot drop errors and total number of steps were recorded by video. Two observers who were blinded to the experiment analyzed the video and counted the steps. The grid-walking test was performed on the day before surgery and on days 21 and 35 post-SCI. Only those mice with consistent plantar stepping (BMS≥5) were tested on the grid.

[3] = system: c-fos positive neurons in raphe nuclei; details: during urodynamic recording
Text: During the urodynamic recording, brain stem neurons controlling the urination within the spared supraspinal circuitry were activated and expressed c-fos.

[4] = system: mice with contusive T9 moderate SCI (IH); details: IH model
Text: Rotarod test: Rotorod is used to assay the hindlimb function of the animal. The animal was put on a rotated device. It consisted of a metal frame with a motorized, rotating assembly of rods. Animals were allowed to remain stationary. […] If animal skilled, it can remain on the device at this speed for extra 30 sec until the 2-min test period elapsed. Normally, a trial was ended if the animal fell completely off the rod or gripped the rod and spun around without attempting to walk on the rod. Mean duration on the rod was recorded.

`Cc1cccc([C@H](C)c2cnc[nH]2)c1C` [Dex, dexmedetomidine hydrochloride] was tested, and the “SMI31 signal (intensity and area) vs. SCI” value [1] was “significantly preserved more”, the “surviving NeuN-positive neurons compared to none-treatment group” value (NeuN-positive neurons) was “about 10 times” and the “Grid walk foot fall” value [2] was 12.9±3.6. The “c-fos positive neurons in raphe nuclei vs. SCI group” value [3] was “Significantly more c-fos positive neurons”, the Rotarod duration time ([4]; 6 wk, SCI+Dex, n=10) was 35.3±1.84 and the “Rotarod average increase rate vs. none-treatment SCI mice” value [4] was 55%.
